Assay results as given in article PMC9138505, “Small Molecule 20S Proteasome Enhancer Regulates MYC Protein Stability and Exhibits Antitumor Activity in Multiple Myeloma” (Biomedicines, 2022).
“And” between values parts separate entries of the source, which are not always exact repeats. Equal values may be shown once. Read-outs that look alike come from different tables or passages of the source.

What was measured:
[1] = system: primary human MM cells of newly diagnosed patient; experiment: Primary cell viability, CellTiter-Glo, 72 h
Description: (§3) White blood cells (WBCs) were separated from red blood cells by the Ficoll density gradient. Multiple myeloma cells were then isolated from WBCs using human CD138 affinity magnetic beads (Miltenyi Biotec; cat#130-093-062; Gaithersburg, MD, USA) following the manufacturer’s protocol. Cells were cryopreserved in 10% DMSO in FBS. Revived cells were maintained in an RPMI medium with 10% FBS for 10 days prior to treatment. […] Cells were equilibrated to RT and CellTiter-Glo (Promega; Madison, WI, USA) solution (100 μL) was added and incubated with shaking for 10 min at RT. The assay plate was then allowed to equilibrate for 5 min at RT and luminescent readings were taken on a SpectraMax® M5. Data are presented as a percentage of the vehicle control for each experimental condition, after background subtraction. Error bars represent SD for triplicate wells.

[2] = system: MYC Reporter (Luc)-HCT-116 cells; experiment: MYC-Luc reporter assay; type: cell-based
Description: The MYC Reporter (Luc)-HCT-116 Cell line, Catalog #60520, was bought from BPS Bioscience. MYC reporter (Luc)-HCT-116 cells were seeded in a white, clear bottom, 96-well microplate at 25,000 cells/well, in McCoy’s 5A media supplemented with 10% FBS and 1% penicillin/streptomycin. The plate was incubated at 37 °C with 5% CO2 overnight. The next day, cells were treated with 0.0 µM, 0.1 µM, 1.0 µM, 2.5 µM, 5.0 µM, 10 µM, or 20 µM TCH-165, in Opti-MEM supplemented with 0.5% FBS, 1% non-essential amino acids, 1 mM Sodium Pyruvate and 1% penicillin/streptomycin. The plate was incubated at 37 °C with 5% CO2 for 16 h. Firefly luminescence was measured using the One-Step Luciferase Assay System from BPS Biosciences.

[3] = Tolerance in dogs (clinical observations, body weight, CBC, clinical chemistry); type: in vivo, beagle dogs; conditions: beagles
Description: Adult beagle dogs (male, 12 months of age, n = 3), weighing approximately 10 kg, received a […] of the test compound at 500 mg bid delivered in capsule form. Blood (approximately 2.5 mL) was collected into lithium heparin tubes at 0, 1 h, 2 h, 4 h, 8 h, and 24 h post-day 1 and post-day 5 dose for PK assessment using mass spectrometry. Blood (approximately 2 mL) was also collected and divided into EDTA and standard clot tubes on day 6 post-dose for determination of CBC and clinical chemistry parameters, respectively, and analyzed at the Michigan State University Veterinary Diagnostic Laboratory. Clinical observations were conducted daily on non-dosing days and twice on dosing days.

[4] = Pharmacokinetic assessment in CD-1 mice; type: in vivo; conditions: for Cmax / Tmax: po, 100 mg/kg
Description: The PK study was carried out with CD-1 mice (males, 6–8 weeks of age, n = 3 per treatment group) weighing between 24.9 g to 33.7 g immediately prior to dosing. TCH-165 (100 mg/kg) was administered by oral gavage, as a homogeneous suspension in a 3:7 (v/v) propylene glycol: 5% dextrose as a vehicle. A second dose of 100 mg/kg TCH-165 was administered approximately 8 h post-initial gavage. Blood was collected at 0.5 h, 1 h, 2 h, 4 h, 8 h, 9 h, 10 h, 12 h, and 16 h post-initial gavage in lithium heparin tubes. Plasma was separated by centrifugation and analyzed using mass spectrometry.

[5] = system: primary cells from a BTZ refractory MM patient; experiment: Primary cell viability, CellTiter-Glo, 72 h; conditions: Homo sapiens
Description: as §3

[6] = system: proteasome, CT-L substrate Suc-LLVY-AMC, canine PBMC lysate; experiment: Proteasome activity in canine PBMC lysate (target engagement); type: in vivo; conditions: treated canines, 1920 mg BID
Description: Canine blood samples obtained in BD Vacutainer CPT mononuclear cell preparation tubes containing sodium citrate were used to isolate PBMCs. For PBMC isolation, sample tubes were inverted five times and equilibrated for the centrifuge with sterile PBS buffer. Tubes were centrifuged at 1800× g with the acceleration set at 5 and a break set to 0 at room temperature for 30 min. Half of the plasma layer was discarded. Using a sterile Pasteur pipette, the buffy coat was collected and put into a 15 mL conical tube and sterile PBS buffer was added to 10 mL. The conical tubes were centrifuged at 300× g for 10 min and the supernatant was removed. Cells were resuspended in 150 µL of lysis buffer (50 mM Tris-HCl, 2 mM Na2ATP, 5 mM MgCl2, 0.5 mM EDTA, 10% glycerol) and lysed by vortex. Samples were centrifuged for 20 min at 14,000× g. The total protein concentration of the supernatant was determined using bicinchoninic acid assay (BCA assay), and the samples were normalized to 1 mg/mL. Samples were diluted to 0.036 µg/µL in assay buffer (38 mM Tris, 100 mM NaCl, pH 7.8) and 140 µL of the diluted sample was added to three wells of a black, clear-bottom 96-well plate. Substrate stock solution (10 µL of 375 µM Suc-LLVY-AMC in assay buffer) was added to each well. Fluorescence was measured and kinetic readings were taken every 5 min at 37 °C, at 380/440 nm for 1 h.

RPMI-8226 cells = experiment: Cell viability, CellTiter-Glo, 72 h; type: cell-based, human; conditions: RPMI-8226, 72 h
Description: (§1) RPMI-8226, L363 and NCI-H929 cells were obtained from ATCC (Manassas, VA, USA) and were maintained in RPMI medium supplemented with 10% fetal bovine serum, and 100 U/mL penicillin/streptomycin, at 37 °C with 5% CO2. DMSO was used as the compound vehicle or vehicle control at a 0.1% final concentration for both cell culture and enzyme assay.
(§2) Error bars represent SD for triplicate wells.

[7] = system: human constitutive 20S proteasome; parameters: method as in PMID 29897236; conditions: i.e., 1000%; cited from earlier work
L363 cells = experiment: Cell viability, CellTiter-Glo, 72 h; type: cell-based; conditions: Homo sapiens, L-363; L363, 72 h
Description: as §1, §2

NCI-H929 cells = experiment: Cell viability, CellTiter-Glo, 72 h; type: cell-based; conditions: Homo sapiens; NCI-H929, 72 h; CI by 3-parameter curve
Description: as §1, §2

[8] = system: RPMI-8226, L363 and H929 cells; experiment: Assessment of apoptosis, Caspase-Glo 3/7 assay; type: cell-based, human; conditions: all three MM cell lines, 24 h (Figure S1)
Description: Apoptosis was evaluated with the Caspase-Glo 3/7 assay kit (Promega; Madison, WI, USA) according to the manufacturer’s instructions. […] Staurosporine (81590, Cayman), an apoptosis inducer, was used as a positive control at 10 μM concentration for 3 h of incubation. After the incubation, the caspase reagent was added to the cells and incubated at 37 °C for 30 min. The luminescent signal was detected by the EnVision plate reader (PerkinElmer; Waltham, MA, USA) and the data were analyzed by Graph Pad Prism (9.2.0, Graph Pad Software Inc., San Diego, CA, USA).

26S proteasome = system: 26S proteasome; parameters: method as in PMID 29897236; conditions: cited from earlier work
[9] = system: RPMI-8226 subcutaneous xenograft; experiment: RPMI-8226 xenograft tumor model

EC50 ([2]; Homo sapiens, stably transfected HCT-116 cells, 16 h, 95% CI 2.46–2.95, read-out: EC50 of decrease of MYC-mediated luciferase transcription): 2.57 µM
Cmax ([4]; male, CD-1, mouse, plasma, CD-1 mice, 100 mg/kg oral bid, second dose 8 h after the first, read-out: Cmax following the second dose): 1.43 ± 0.625 µM
Tmax ([4]; male, CD-1, mouse, plasma, CD-1 mice, 100 mg/kg oral bid, second dose 8 h after the first, read-out: Tmax following the second dose): 12 h
Cmax ([4]; male, CD-1, mouse, plasma, CD-1 mice, 100 mg/kg oral gavage, plasma, read-out: Cmax following the first dose): 0.932 ± 0.184 µM
Tmax ([4]; male, CD-1, mouse, plasma, CD-1 mice, 100 mg/kg oral gavage, read-out: Tmax following the first dose): 2 h
AUC ([4]; male, CD-1, mouse, plasma, mice, means, 100 mg/kg bid oral, read-out: AUC (nM) (0-16 for mice)): 14 µM·h
AUC(0-t) ([4]; male, mouse, plasma, CD-1 mice, 100 mg/kg oral bid, trapezoidal method, read-out: mean AUC (0–16 h)): 14 µM·h
metabolic lability of the ester moiety (by LC-MS) ([4]; mouse PK study): not metabolically labile
drug concentration by mass spectrometry [6]: 1.4 µM and 1.1 µM
loss of body weight ([9]; SCID mice, 100 mg/kg bid oral): < 10%
Structure (SMILES): CCOC(=O)[C@]1(c2ccccc2)N=C(c2ccc(OC)cc2)N(Cc2ccccc2)[C@@H]1c1ccc(NCc2ccccc2)cc1 [TCH-165]
CC50 [1]: 1 µM
MYC-mediated luciferase transcription with addition of bortezomib ([2]; TCH-165 3 μM after bortezomib 10 nM, 2 h pre-incubation): restored luciferase transcription back to the levels of the vehicle control
body weight change ([3]; 50 mg/kg bid oral capsule, five consecutive days): < 1%
clinical observations, body weight, complete blood counts and clinical chemistry panel compared to pre-dose status ([3]; 50 mg/kg bid oral capsule, five days): no significant changes
notable change in the clinical chemistry profile ([3]; day 5 of administration): increase in plasma iron concentrations
CC50 [5]: 8.1 µM
CC50 (RPMI-8226 cells; Homo sapiens): ~1 µM
CC50 (RPMI-8226 cells): 0.9 µM
enhancement of 20S-mediated proteolysis [7]: ~10 fold
CC50 (L363 cells): 5 µM
CC50 (NCI-H929 cells): 4.3 µM
induction of apoptosis (caspase 3/7 activity) [8]: induction of apoptosis
26S proteasome activity (26S proteasome): not affected
concentrations at which structured proteins targeted by the 26S-ubiquitin-dependent proteasome system were not affected (26S proteasome): < 30 µM
concentration at which disassembly of the 26S proteasome inhibited 26S-mediated degradation of ubiquitinylated substrates (26S proteasome; various cell lines, including RPMI-8226): > 30 µM
reduction of tumor growth compared to vehicle control ([9]; 100 mg/kg bid oral gavage, after 42 days, p < 0.05): 75.71% and 76%
average tumor volume ([9]; after 42 days, TCH-165 100 mg/kg bid oral, bortezomib 0.375 reduced to 0.09 mg/kg i.v. 3X per week): 304.43 (±49.50) mm^3
